# From patent EP4778531A1, “MUSCLE RELAXANT ANTAGONIST FOR REVERSAL FOR BENZYLISOQUINOLINE MUSCLE RELAXANT” (priority 2023, dated 2025)
# Columns and labels:
# [1] = test system: Inflammation-Related Factors; format: in vivo, ICR mice; conditions: Adamgammadex sodium 1 g/kg, Sugammadex sodium 1 mg/kg, Neostigmine 0.3 mg/kg; for impact on inducing immune inflammation in mice (in words): conclusion from Tables 3 and 4; for Fluorescence Intensity M-CSF (Macrophage lysis-stimulating factor): second M-CSF line of Table 4
# Procedure: An antibody array is a type of protein chip characterized by miniaturization, integration, and high throughput. It can be used to detect the expression abundance of proteins related to a specific physiological or pathological process. The principle involves arranging capture antibodies on a membrane or glass slide, incubating with the sample, adding biotin-labeled antibodies against the target proteins, and finally using HRP-streptavidin or fluorescein-streptavidin to detect the chip signal. Signals are detected using chemiluminescence or HiLyte™ Fluor 555-streptavidin.
# In this experiment, ICR mice were randomly divided into a blank group, Adamgammadex sodium (1 g/kg) group, Sugammadex sodium (1 mg/kg) group, and Neostigmine (0.3 mg/kg) group, with 2 mice per group. Mice in each group given the corresponding dosage of compound via the tail vein once daily for 5 consecutive days. On the last day after administration, plasma from the 2 animals per group was mixed and detected using the Ary028 immune chip kit. Specific detection steps were as follows: • (1) Sample volume determination: 200 µL serum sample per Array unit. (2) Blocking protein chip: Each membrane was blocked with 2 mL of corresponding Array Buffer, incubated on a shaker for 1 hour. (3) Sample processing: Samples were diluted with corresponding Array Buffer to a volume of 1.5 mL per membrane, the corresponding Array unit was added, and incubated overnight with the Array protein membrane at 4°C. (4) Membranes were washed three times with corresponding Wash buffer, then diluted detection antibody was added and incubated at room temperature for 1 h. (5) Membranes were washed three times with corresponding Wash buffer, streptavidin-HRP was added and incubated for 30min at room temperature with shaking. (6) Membranes were washed three times with corresponding Wash buffer, 1 mL of chemiluminescent reagent was added to each well, and developed on a chemiluminescence imager. (7) Fluorescence intensity was used to represent the relative concentration of the corresponding protein.
# [2] = test system: Wild-type AB strain zebrafish; experiment: Evaluation of compound-induced sensitization risk in zebrafish (tryptase OD, BAPNA); format: in vivo; conditions: 500 ng/tail
# Procedure: Wild-type AB strain zebrafish at 2 days post-fertilization (2 dpf) were randomly selected and placed in 24-well plates. Each group was with 6 replicate wells per group and 10 zebrafish per well. The following groups were set up: (1) Normal control group; (2) Positive control group (the used drug was mast cell sensitizer C48/80 at 1.5 µg/mL concentration); (3) Compound 1 (adamgammadex sodium) experimental group; (4) Compound 2 experimental group; (5) Compound 3 experimental group; (6) Compound 4 experimental group; (7) Compound 5 experimental group; (8) Compound 6 experimental group; (9) Compound 7 (sugammadex sodium) experimental group. In the experimental groups, Compound 1 was adamgammadex sodium, Compounds 2-6 were adamgammadex sodium analogues, and Compound 7 was sugammadex sodium. The volume of each well was 1 mL, and all experimental groups were treated with BAPNA (a specific detection reagent for mast cell degranulation) dissolved in water. Table 1: Structural Formulas of Compounds 1-7
# After 1 day of treatment at 28°C, the liquid was transferred to a 96-well plate, with 200 µL/well. The relative absorbance (OD value) of tryptase expression levels in each experimental group was measured using a microplate reader. The OD value statistical analysis results were used to evaluate the sensitization risk of the samples. Statistical analysis was performed using SPSS software, with p < 0.05 indicating a significant difference. Sensitization risk (%) = (OD(Samplegroup)−OD(NormalControlgroup))/(OD (NormalControlgroup)) × 100% [formula]
# [3] = ICR mice, tail vein once daily for 5 days, pooled plasma of 2 mice, N.D. = below minimum detection limit
compound,measurement,setting,value
"CN(C)C(=O)Oc1cccc([N+](C)(C)C)c1 [Neostigmine, neostigmine methylsulfate]",Fluorescence Intensity BAFF/BlyS/ TNFSF13B (B cell activation factor),[1]; [3],12170.94
same,Fluorescence Intensity C-Reactive Protein/CRP (C-reactive protein),[1]; [3],11999.12
same,Fluorescence Intensity CCL17/TARC (Thymus activation regulatory chemokine),[1]; [3],3653.32
same,Fluorescence Intensity CCL19/MIP 3β (Macrophage inflammatory protein 3β),[1]; [3],3385.33
same,Fluorescence Intensity CCL20/MIP 3α (Macrophage inflammatory protein 3α),[1]; [3],4440.55
same,Fluorescence Intensity CCL21/6Ckine (Lymphocyte chemokine CCL21),[1]; [3],17119.34
same,Fluorescence Intensity CCL22/MDC (Macrophage-derived chemokine),[1]; [3],4762.19
same,Fluorescence Intensity CD160 (Leukocyte differentiation antigen160),[1]; [3],4298.1
same,Fluorescence Intensity CX3CL1/ Gractalkine (Neural chemokine),[1]; [3],2935.07
same,Fluorescence Intensity CXCL1/KC (Neutrophil chemokine),[1]; [3],2935.82
same,Fluorescence Intensity CXCL9/MIG (IFN-γ-induced monocyte factor),[1]; [3],1730.04
same,Fluorescence Intensity CXCL10/IP-10 (Interferon-induced protein 10),[1]; [3],1971.99
same,Fluorescence Intensity CXCL11/I-TAC (Interferon-induced T cell chemokines),[1]; [3],2397.51
same,Fluorescence Intensity CXCL13 (CXC family chemokine),[1]; [3],3607.1
same,Fluorescence Intensity CXCL16 (CXC family chemokine),[1]; [3],2426.598
same,Fluorescence Intensity Chemerin (Chemotactic factor),[1]; [3],7955.57
same,Fluorescence Intensity G-CSF (Granulocyte colony-stimulating factor),[1]; [3],1289.56
same,Fluorescence Intensity IL-2 (Interleukin-2),[1]; [3],1107.85
same,Fluorescence Intensity IL-7 (Interleukin-7),[1]; [3],3226.41
same,Fluorescence Intensity IL-10 (Interleukin-10),[1]; [3],1601.99
same,Fluorescence Intensity IL-11 (Interleukin-11),[1]; [3],2195.99
same,Fluorescence Intensity IL-12p40 (Interleukin IL-12p40),[1]; [3],2936.85
same,Fluorescence Intensity IL-13 (Interleukin-13),[1]; [3],1609.58
same,Fluorescence Intensity IL-15 (Interleukin-15),[1]; [3],1503.8
same,Fluorescence Intensity IL-17A (Interleukin -17A),[1]; [3],783.45
same,Fluorescence Intensity IL-22 (Interleukin-22),[1]; [3],1253.05
same,Fluorescence Intensity IL-23 (Interleukin-23),[1]; [3],1483.72
same,Fluorescence Intensity IL-27p28 (Interleukin-27p28),[1]; [3],1575.98
same,Fluorescence Intensity IL-28 (Interleukin-28),[1]; [3],3505.78
same,Fluorescence Intensity IL-33 (Interleukin-33),[1]; [3],1897.86
same,Fluorescence Intensity M-CSF (Macrophage colony-stimulating factor),[1]; [3],6478.33
same,Fluorescence Intensity Myeloperoxidase (Mastoperoxidase),[1]; [3],6395.44
same,Fluorescence Intensity Pentraxin 3 (Pertussis toxin 3),[1]; [3],3694.57
same,Fluorescence Intensity TIM-1/KIM-1/ HAVCR (Hepatitis A virus receptor-1 (inflammation/ immunity)),[1]; [3],1197.17
same,impact on inducing immune inflammation in mice (in words),[1],most severe impact
same,Fluorescence Intensity M-CSF (Macrophage lysis-stimulating factor),[1]; [3],6478.33
same,Fluorescence Intensity Pentraxin 3/TSG-14 (Pertussis toxin 3),"[1]; second Pentraxin 3 line of Table 4, ICR mice, tail vein once daily for 5 days, pooled plasma of 2 mice, N.D. = below minimum detection limit",3694.57
Adamgammadex sodium [Compound 1],Fluorescence Intensity BAFF/BlyS/ TNFSF13B (B cell activation factor),[1]; [3],6659.29
same,Fluorescence Intensity C-Reactive Protein/CRP (C-reactive protein),[1]; [3],5549.81
same,Fluorescence Intensity CCL21/6Ckine (Lymphocyte chemokine CCL21),[1]; [3],8082.61
same,Fluorescence Intensity CCL22/MDC (Macrophage-derived chemokine),[1]; [3],738.38
same,Fluorescence Intensity Chemerin (Chemotactic factor),[1]; [3],2680.26
same,Fluorescence Intensity IL-7 (Interleukin-7),[1]; [3],1850.57
same,Fluorescence Intensity IL-28 (Interleukin-28),[1]; [3],244.77
same,Fluorescence Intensity M-CSF (Macrophage colony-stimulating factor),[1]; [3],871.82
same,Fluorescence Intensity Myeloperoxidase (Mastoperoxidase),[1]; [3],1927.54
same,impact on inducing immune inflammation in mice (in words),[1],smallest impact
same,Fluorescence Intensity M-CSF (Macrophage lysis-stimulating factor),[1]; [3],871.82
same,OD value (mean ± SE),"[2]; 1 day at 28°C, relative absorbance of tryptase expression levels",0.060 ± 0.001
same,Sensitization risk (%),"[2]; 1 day at 28°C, vs normal control OD",11%
same,sensitization risk (in words),[2]; conclusion from OD value,almost no sensitization risk
